The values below come from patent US5807691A, “Polypeptides having serotonin receptor activity (5HT5A), nucleic acids coding for these polypeptides and uses thereof” (Institut National De La Sante et Da La Recherche Medicale, priority 1992, dated 1998).

Test [1] deals with 5HT1D. To be noted: cited from earlier work.
Test [2] addresses 5HT1D. To be noted: cited from earlier work. The source holds these as a separate data set.
In test [3] the target is 5HT5a receptor.
In test [4] the test system is 5HT5a receptor. The source holds these as a separate data set.
For test [5], the system named is 5HT5a receptor. As to the kind of experiment: Saturation binding of radiolabelled serotonin ligands to membranes of Cos-7 cells expressing the 5HT5a receptor. Set-up: species or system rat. To be noted: 10 minutes at 37° C., 50 mM Tris-HCl pH 7.4. The method, then: The specific binding is shown.
(§1) Radioactivity was measured with a γ counter.

In test [6] the test system is 5HT5a receptor. The test can be described thus: [^125 I]-LSD binding to membranes of NIH-3T3 clones NS1 and NS4 expressing the 5HT5a receptor. Also noted: species or system rat. As for the experimental part:
as §1
For this purpose, the recombinant expression vector described in 3. above was used. […] The transformant clones were selected in the presence of 0.5 mg of G418. The clones isolated were then amplified, and the total RNAs of these clones were prepared and analysed by Northern blotting for the expression of 5HT5a mRNA.
The membranes of the cells of these clones were then prepared and tested under the conditions described above for their capacity to bind some labelled serotonin ligands, and to determine the affinity of the receptors for the said ligands.
Different displacement experiments were then carried out (Table 1).

SMILES strings stand for the structures. Where two headings read alike, the source gives them in different places.

For the compound `CC(C)NCC(O)COc1cccc2[nH]ccc12` (racemic) [(±)Pindolol], the “pKi 5HT1D (rat cortex)” value in test [1] was below 5. In addition, in test [2] (Calf caudate), the “pKi 5HT1D (Calf caudate)” value is 5.2.

Regarding `NCCc1c[nH]c2ccc(C(N)=O)cc12` [5-CT], in test [1], the “pKi 5HT1D (rat cortex)” value is given as 8.6. In addition, in test [2] (Calf caudate), the “pKi 5HT1D (Calf caudate)” value is reported as 8.6.

Regarding `NCCc1c[nH]c2ccc(O)cc12` [5-HT, 5-hydroxytryptamine], the “pKi 5HT1D (rat cortex)” value in test [1] is reported as 8.7. The “pKi 5HT1D (Calf caudate)” value in test [2] (Calf caudate) is on record as 8.4.

As to `CCCN(CCC)C1CCc2cccc(O)c2C1` (stereo not drawn) [8-OH-DPAT], the “pKi 5HT1D (rat cortex)” value in test [1] is on record as 6.6. The “pKi 5HT1D (Calf caudate)” value in test [2] (Calf caudate) was 5.9.

For orientation: Ki means the equilibrium dissociation constant of an inhibitor or competing ligand from its target. In turn, `NC[C@H](O)c1ccc(O)c(O)c1` [(-)Norepinephrine] gave a Ki in test [3] of 1580 µM. That is a millimolar value.

Consider `CN(C)CCc1c[nH]c2ccc(O)cc12` [Bufotenine], for which the “pKi 5HT1D (Calf caudate)” value in test [2] (Calf caudate) is given as 8.1.

Consider `NCCc1ccc(O)c(O)c1` [Dopamine], for which the Ki in test [3] was 79.4 µM.

For the compound `CN1C[C@H](C(=O)N[C@]2(C)O[C@@]3(O)[C@@H]4CCCN4C(=O)[C@H](Cc4ccccc4)N3C2=O)C=C2c3cccc4[nH]cc(c34)C[C@H]21` [Ergotamine], the “pKi 5HT1D (Calf caudate)” value in test [2] is 7.8. For the same compound, the “pKi 5HT5 (Cos-7)” value in test [4] is recorded as 8.4.

Take `O=C(c1ccc(F)cc1)C1CCN(CCn2c(=O)[nH]c3ccccc3c2=O)CC1` [Ketanserin]: the “pKi 5HT1D (rat cortex)” value in test [1] is reported as below 5. Besides, the “pKi 5HT1D (Calf caudate)” value in test [2] (Calf caudate) is listed as 5.7. The compound also showed a Ki in test [3] of 15.8 µM.

With `COc1ccc2[nH]cc(C3=CCNCC3)c2c1` [RU24969], the “pKi 5HT1D (Calf caudate)” value in test [2] (Calf caudate) was 7.3.

Consider `CNS(=O)(=O)Cc1ccc2[nH]cc(CCN(C)C)c2c1` [Sumatriptan], for which the “pKi 5HT1D (Calf caudate)” value in test [2] (Calf caudate) is reported as 7.5.

Regarding `FC(F)(F)c1cccc(N2CCNCC2)c1` [TFMPP], the “pKi 5HT1D (rat cortex)” value in test [1] is on record as 6.6. In addition, in test [2] (Calf caudate), the “pKi 5HT1D (Calf caudate)” value is on record as 6.2.

Take `COC(=O)[C@@H]1[C@H]2C[C@H]3c4[nH]c5ccccc5c4CCN3C[C@@H]2CC[C@@H]1O` [Yohimbine]: in test [2], the “pKi 5HT1D (Calf caudate)” value is on record as 7.1.

`CCCN(CCC)C1CCc2cccc(O)c2C1` (stereo not drawn) [[^3 H]-8-OH-DPAT]: the “binding of radiolabelled ligand to membranes of transfected Cos-7 cells” value (from here on “binding of radiolabelled ligand”) in test [5] is reported as “do not bind”.

As for `O=C(CCCN1CCC2(CC1)C(=O)NCN2c1ccccc1)c1ccc(F)cc1` [[^3 H]-spiperone], the “binding of radiolabelled ligand” value in test [5] is reported as “do not bind”.

Broadly, the Kd is a measure of binding affinity in units of concentration. As to `CCN(CC)C(=O)[C@@H]1C=C2c3cccc4[nH]c([125I])c(c34)C[C@H]2N(C)C1` [[^125 I]-LSD], the “binding of radiolabelled ligand” value in test [5] is recorded as “possesses a saturable binding site”. Moreover, the Kd in test [5] (Cos-7 membranes, non-specific binding with 10 μM 5HT, FIG. 2) stood at 0.00034 µM. For the same compound, the “binding sites for [^125 I]-LSD on membranes of clones NS1 and NS4” value in test [6] was “high-affinity binding sites”.

As for `CC(C)(C)NCC(O)COc1cccc2[nH]c(C#N)c([125I])c12` (stereo not drawn) [[^125 I]-cyanopindolol], the “binding of radiolabelled ligand” value in test [5] is listed as “do not bind”.
